# Experiments:
# KB-3-1 = assay: Growth inhibition of KB-3-1 cells, MTT assay; type: cell-based, human; conditions: for Antiproliferative activity IC50: KB-3-1, cervix carcinoma, 5 days, MTT
# Description: (§1) For the detailed evaluation of their biological profile as anti-cancer agents, cultured human tumor cell lines were treated with the new ansamitocin derivatives. In particular, the 19-fluoro-20-demethoxyansamitocin P3 (F-A), 19-chloro-20-demethoxyansamitocin P3 (Cl-A), 19-bromo-20-demethoxyansamitocin P3 (Br-A), and the 20-demethoxy-19-vinylansamitocin P3 (VI) were tested for their inhibitory effect on cell growth of different cell lines, namely KB-3-1, U-937, PC-3, SK-OV-3, A-498, A-431, and A-549, in comparison to natural biosynthesis product Ansamitocin P-3 (AP-3). Growth inhibition was measured in microtiter plates. 60 μl of serial dilutions of the test compounds were added to aliquots of 120 μl of the suspended cells (50000/ml). After 5 days the growth was determined using a MTT assay, except for U-937, where the WST-1 assay from Roche was employed.
# U-937 = assay: Growth inhibition of U-937 cells, WST-1 assay; type: cell-based, human; conditions: for Antiproliferative activity IC50: U-937, lymphoma, 5 days, WST-1
# Description: as §1
# PC-3 = assay: Growth inhibition of PC-3 cells, MTT assay; type: cell-based, human; conditions: for Antiproliferative activity IC50: PC-3, prostate carcinoma, 5 days, MTT
# Description: as §1
# SK-OV-3 = assay: Growth inhibition of SK-OV-3 cells, MTT assay; type: cell-based, human; conditions: for Antiproliferative activity IC50: SK-OV-3, ovarian carcinoma, 5 days, MTT
# Description: as §1
# A-498 = assay: Growth inhibition of A-498 cells, MTT assay; type: cell-based, human; conditions: for Antiproliferative activity IC50: A-498, kidney carcinoma, 5 days, MTT
# Description: as §1
# A-431 = assay: Growth inhibition of A-431 cells, MTT assay; type: cell-based, human; conditions: for Antiproliferative activity IC50: A-431, epidermoid carcinoma, 5 days, MTT
# Description: as §1
# A-549 = assay: Growth inhibition of A-549 cells, MTT assay; type: cell-based, human; conditions: for Antiproliferative activity IC50: A-549, lung carcinoma, 5 days, MTT
# Description: as §1
# [1] = tested on: cultured human tumor cell lines; assay: Antiproliferative activity on cultured human tumor cell lines (panel, general statements); type: cell-based; conditions: in general, across the cell lines tested
# Description: as §1
Compound,Antiproliferative activity IC50 (KB-3-1) [ng/mL],Antiproliferative activity IC50 (U-937) [ng/mL],Antiproliferative activity IC50 (PC-3) [ng/mL],Antiproliferative activity IC50 (SK-OV-3) [ng/mL],Antiproliferative activity IC50 (A-498) [ng/mL],Antiproliferative activity IC50 (A-431) [ng/mL],Antiproliferative activity IC50 (A-549) [ng/mL],"IC50 (KB-3-1; Homo sapiens, KB 3-1, 120 h, read-out: Antiproliferative activity IC50) [ng/mL]","IC50 (U-937; Homo sapiens, U-937, 120 h, read-out: Antiproliferative activity IC50) [ng/mL]","IC50 (PC-3; Homo sapiens, PC-3, 120 h, read-out: Antiproliferative activity IC50) [ng/mL]","IC50 (SK-OV-3; Homo sapiens, SK-OV-3, 120 h, read-out: Antiproliferative activity IC50) [ng/mL]","IC50 (A-498; Homo sapiens, A498, 120 h, read-out: Antiproliferative activity IC50) [ng/mL]","IC50 (A-431; Homo sapiens, A-431, 120 h, read-out: Antiproliferative activity IC50) [ng/mL]","IC50 (A-549; Homo sapiens, A549, 120 h, read-out: Antiproliferative activity IC50) [ng/mL]",relative activity among the compounds tested [1]
"COc1cc2cc(c1Cl)N(C)C(=O)C[C@H](OC(=O)C(C)C)[C@]1(C)O[C@@H]1[C@H](C)[C@@H]1C[C@@](O)(NC(=O)O1)[C@H](OC)/C=C/C=C(\C)C2 [AP-3, Ansamitocin P-3, reference compound]",0.11,0.0035,0.035,0.03,1.1,0.05,0.1,,,,,,,,
"C=Cc1ccc2cc1N(C)C(=O)C[C@H](OC(=O)C(C)C)[C@]1(C)O[C@H]1[C@H](C)[C@@H]1C[C@@](O)(NC(=O)O1)[C@H](OC)/C=C/C=C(\C)C2 [VI, 20-demethoxy-19-vinylansamitocin P3]",,,,,,,,0.4,0.05,0.1,0.04,2,0.04,0.14,
19-fluoro-20-demethoxyansamitocin P3 [F-A],0.18,0.01,0.035,0.035,2,0.04,0.11,,,,,,,,most active
C=Cc1ccc2cc1N(C)C(=O)CC(OC(=O)C(C)C)C1(C)OC1C(C)C1CC(O)(NC(=O)O1)C(OC)C=CC=C(C)C2 (stereo not shown) [20-demethoxy-19-vinylansamitocin P3],,,,,,,,,,,,,,,most active
"CO[C@@H]1/C=C/C=C(\C)Cc2ccc(Br)c(c2)N(C)C(=O)C[C@H](OC(=O)C(C)C)[C@]2(C)O[C@H]2[C@H](C)[C@@H]2C[C@@]1(O)NC(=O)O2 [Br-A, 19-bromo-20-demethoxyansamitocin P3]",0.3,0.03,0.1,0.05,4,0.1,0.3,,,,,,,,
19-chloro-20-demethoxyansamitocin P3 [Cl-A],0.35,0.035,0.12,0.1,3,0.15,0.4,,,,,,,,
